How the values were obtained:
female rats = details: cited from earlier work
[1] = Calculated concentrations based on ventricle and CSF volumes; assay type: in vivo; details: dog; for Cmax: Beagle, icv or intrathecal, ventricle volume 2 ml; for Cmax CSF: CSF volume 20 mL
[2] = Method: 0.79 g Cremophor EL (Trade Mark) was weighed in an Erlenmeyer flask, and 60 mL aCSF (obtained from Tocris Pharma) was added. […] The solution was then placed in an ultrasonic bath maintained at 25-28° C. for 20 minutes. […] The solution was ultrasonicated for another 25 minutes.
The mixture was then filtered using a Millipore Millex-LG, PTFE, 0.20 μm filter (SLLG025SS).
500 μL Cremophor EL was pipetted into an Erlenmeyer flask containing 40 mL in-house prepared aCSF. […] An additional 10 minutes of ultrasonication was carried out to ensure complete dissolution.

[3] = ambient conditions
Method: A solution that remains intact to an extent acceptable for pharmaceutical use for the time required between preparing the solution and administering it to the patient (for example 2 hours, for example 1 hour) is considered herein to be “stable”.

MEK2 = MEK2 (Homo sapiens, UniProt P36507); details: cited from earlier work
MEK2, sequence (P36507 whole entry, species assumed): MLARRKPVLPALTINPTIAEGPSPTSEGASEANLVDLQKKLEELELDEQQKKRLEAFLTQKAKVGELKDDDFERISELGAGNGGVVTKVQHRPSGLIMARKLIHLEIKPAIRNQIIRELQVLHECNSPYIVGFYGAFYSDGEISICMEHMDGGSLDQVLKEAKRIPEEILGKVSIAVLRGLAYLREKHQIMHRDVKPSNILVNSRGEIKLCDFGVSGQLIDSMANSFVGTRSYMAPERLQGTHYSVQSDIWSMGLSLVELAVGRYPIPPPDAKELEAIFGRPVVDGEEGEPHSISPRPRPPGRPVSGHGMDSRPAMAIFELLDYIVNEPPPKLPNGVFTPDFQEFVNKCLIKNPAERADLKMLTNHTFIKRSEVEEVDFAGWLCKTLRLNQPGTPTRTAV

rats = details: in 0.5% Cremophor in aqueous solution; cited from earlier work

In the case of `N#CC(=C(/N)Sc1ccccc1N)/C(C#N)=C(\N)Sc1ccccc1N` [Example U0126, 1,4-Diamino-2,3-dicyano-1,4-bis(o-aminophenylmercapto) butadiene], the “long-term neurologic outcome after stroke” value (female rats) is given as “improves long-term neurologic outcome”, the Cmax ([1]; 20 μM/0.5 mL) is given as 5 µM and the Cmax ([1]; 100 μM/0.5 mL) is given as 25 µM. For the same molecule, the Cmax ([1]; 200 μM/0.5 mL) was 50 µM, the “Cmax CSF” value ([1]; 20 μM/0.5 mL) was 0.5 µM and the “Cmax CSF” value ([1]; 100 μM/0.5 mL) was 2.5 µM. The “Cmax CSF” value ([1]; 200 μM/0.5 mL) was 5 µM, the “measured content of U0126” value ([2]; Example 2, clear solution after 0.20 μm PTFE filtration, 0.5% v/v Cremophor EL in aCSF) was 68 µM and the “U0126 content of filtered samples” value ([2]; Example 3, 0.5% Cremophor EL in aCSF, pH 8.6, after 0.20 μm PTFE filtration) was 85 to 99 µM. For the same molecule, the “time solid form remains intact” value [3] was “several decades”, the “inhibitor of MEK2” value (MEK2) was “inhibitor” and the “maximum tolerated intracerebroventricular (ICV) concentration in vivo” value (rats) was 10 µM.

Source: US20260216119A1, “NOVEL SOLUTIONS” (priority 2022, published 2026)
